According to ChEMBL document CHEMBL5724914, “Linking interpersonal differences in gut microbiota composition and drug biotransformation activity” (2024):

Columns and labels:
[1] = The drug is tested on Z-029 corresponding to rat gut metagenome with ENA study accession number: PRJEB37062 and ENA sample accession number: ERS12561828 for biotransformation under anaerobic condition. The drug concentrations were measured over 9 timepoints collected between 0 and 24 hours of incubation by liquid-chromatography-coupled mass spectrometry (LC–MS); conditions: 2 µM
[2] = The drug is tested on Z-022 corresponding to mouse gut metagenome with ENA study accession number: PRJEB37062 and ENA sample accession number: ERS12561821 for biotransformation under anaerobic condition. The drug concentrations were measured over 9 timepoints collected between 0 and 24 hours of incubation by liquid-chromatography-coupled mass spectrometry (LC–MS); conditions: 2 µM
[3] = The drug is tested on Z-018 corresponding to pig gut metagenome with ENA study accession number: PRJEB37062 and ENA sample accession number: ERS12561817 for biotransformation under anaerobic condition. The drug concentrations were measured over 9 timepoints collected between 0 and 24 hours of incubation by liquid-chromatography-coupled mass spectrometry (LC–MS); conditions: 2 µM
[4] = The drug is tested on Z-014 corresponding to rat gut metagenome with ENA study accession number: PRJEB37062 and ENA sample accession number: ERS12561814 for biotransformation under anaerobic condition. The drug concentrations were measured over 9 timepoints collected between 0 and 24 hours of incubation by liquid-chromatography-coupled mass spectrometry (LC–MS); conditions: 2 µM
[5] = The drug is tested on Z-010 corresponding to metagenome with ENA study accession number: PRJEB37062 and ENA sample accession number: ERS12561810 for biotransformation under anaerobic condition. The drug concentrations were measured over 9 timepoints collected between 0 and 24 hours of incubation by liquid-chromatography-coupled mass spectrometry (LC–MS); conditions: 2 µM
[6] = The drug is tested on WLS-350 corresponding to human gut metagenome with ENA study accession number: PRJEB37062 and ENA sample accession number: ERS12561789 for biotransformation under anaerobic condition. The drug concentrations were measured over 9 timepoints collected between 0 and 24 hours of incubation by liquid-chromatography-coupled mass spectrometry (LC–MS); conditions: 2 µM
[7] = The drug is tested on WLS-090 corresponding to human gut metagenome with ENA study accession number: PRJEB37062 and ENA sample accession number: ERS12561753 for biotransformation under anaerobic condition. The drug concentrations were measured over 9 timepoints collected between 0 and 24 hours of incubation by liquid-chromatography-coupled mass spectrometry (LC–MS); conditions: 2 µM
[8] = The drug is tested on WLS-039 corresponding to human gut metagenome with ENA study accession number: PRJEB37062 and ENA sample accession number: ERS12561746 for biotransformation under anaerobic condition. The drug concentrations were measured over 9 timepoints collected between 0 and 24 hours of incubation by liquid-chromatography-coupled mass spectrometry (LC–MS); conditions: 2 µM
[9] = The drug is tested on WLS-038 corresponding to human gut metagenome with ENA study accession number: PRJEB37062 and ENA sample accession number: ERS12561745 for biotransformation under anaerobic condition. The drug concentrations were measured over 9 timepoints collected between 0 and 24 hours of incubation by liquid-chromatography-coupled mass spectrometry (LC–MS); conditions: 2 µM
[10] = The drug is tested on WLS-027 corresponding to human gut metagenome with ENA study accession number: PRJEB37062 and ENA sample accession number: ERS12561744 for biotransformation under anaerobic condition. The drug concentrations were measured over 9 timepoints collected between 0 and 24 hours of incubation by liquid-chromatography-coupled mass spectrometry (LC–MS); conditions: 2 µM
[11] = The drug is tested on WLS-010 corresponding to human gut metagenome with ENA study accession number: PRJEB37062 and ENA sample accession number: ERS12561743 for biotransformation under anaerobic condition. The drug concentrations were measured over 9 timepoints collected between 0 and 24 hours of incubation by liquid-chromatography-coupled mass spectrometry (LC–MS); conditions: 2 µM
[12] = human gut metagenome, 24 h, 2 µM
[13] = human gut metagenome, 24 h, 2 µM; remark: listed apart in the source
[14] = human gut metagenome, 24 h, 2 µM; remark: listed apart in the source
[15] = human gut metagenome, 24 h, 2 µM; remark: listed apart in the source
[16] = human gut metagenome, 24 h, 2 µM; remark: listed apart in the source
[17] = human gut metagenome, 24 h, 2 µM; remark: listed apart in the source
[18] = human gut metagenome, 24 h, 2 µM; remark: listed apart in the source
[19] = human gut metagenome, 24 h, 2 µM; remark: listed apart in the source
[20] = human gut metagenome, 24 h, 2 µM; remark: listed apart in the source

Measured: Bacterial Biotransformation
Note: call rule not given here.

CC[C@@H](CO)NC(=O)[C@@H]1C=C2c3cccc4c3c(cn4C)C[C@H]2N(C)C1.O=C(O)/C=C\C(=O)O [METHYSERGIDE MALEATE]
Compound metabolized: [15]
Compound NOT metabolized: [1] | [2] | [3] | [4] | [5] | [6] | [7] | [8] | [9] | [10] | [11] | [12] | [13] | [14] | [16] | [17] | [18] | [19] | [20]

CCN(CC)CCNC(=O)c1cc(Cl)c(N)cc1OC [METOCLOPRAMIDE]
Compound NOT metabolized: [1] | [2] | [3] | [4] | [5] | [6] | [7] | [8] | [9] | [10] | [11] | [12] | [13] | [14] | [15] | [16] | [17] | [18] | [19] | [20]

Cc1ccccc1N1C(=O)c2cc(S(N)(=O)=O)c(Cl)cc2NC1C (stereo not given) [METOLAZONE]
Compound NOT metabolized: [1] | [2] | [3] | [4] | [5] | [8] | [9] | [10] | [11] | [13] | [14] | [15] | [16] | [18] | [19]
Compound metabolized: [6] | [7] | [12] | [17] | [20]

COCCc1ccc(OCC(O)CNC(C)C)cc1.COCCc1ccc(OCC(O)CNC(C)C)cc1.O=C(O)C(O)C(O)C(=O)O (stereo not given) [METOPROLOL TARTRATE]
Compound metabolized: [5] | [6] | [7] | [14] | [17] | [20]
Compound NOT metabolized: [1] | [2] | [3] | [4] | [8] | [9] | [10] | [11] | [12] | [13] | [15] | [16] | [18] | [19]

COc1c(C)c2c(c(O)c1C/C=C(\C)CCC(=O)OCCN1CCOCC1)C(=O)OC2 [MYCOPHENOLATE MOFETIL]
Compound NOT metabolized: [19]
Compound metabolized: [1] | [2] | [3] | [4] | [5] | [6] | [7] | [8] | [9] | [10] | [11] | [12] | [13] | [14] | [15] | [16] | [17] | [18] | [20]
